Experimental findings from patent US5264433A, “Benzodiazepine derivatives” (Fujisawa Pharmaceutical Co., Ltd., priority 1988, dated 1993) are described below.

Molecules are shown by their SMILES.

For one assay, the system named is CCK receptor. Briefly: CCK receptor antagonism in isolated fundic circular muscle from guinea pig stomach. The conditions noted are these: test compound 1×10^-5 M added 5 minutes before CCK-8 (3.2×10^-7 M); isolated circular muscle strip. On the procedure:
CCK receptor antagonism in isolated fundic circular muscle from guinea pig stomach
The strip of circular muscle suspended in 25 ml organ bath containing Kreb's bicarbonate solution (NaCl 118 mM, KCl 4.8 mM, KH2 PO4 1.2 mM, MgSO4 1.2 mM, CaCl2 2.5 mM, NaHCO3 25 mM, glucose 11 mM and bovine serum albumin 0.1%) maintained at 37° C. and gassed with 95% O2 and 5% CO2.
The strip was placed under an initial tension of 0.5 g and equilibrated for 60 minutes during which the bath volume was replaced every 15 minutes. Isometric contraction was measured using a force transducer. CCK-8 (3.2×10^-7 M) was added to the bathing solution and the contractile force was measured. After washing out CCK-8, test compound A (1×10^-5 M) was added. 5 minutes later, CCK-8 was added and the contractile force was measured. CCK antagonism was calculated by comparing the contractile force induced by CCK in the absence or presence of test compound A.

The test system of the next assay is CCK-A receptor. Briefly: CCK-A receptor antagonist selectivity (statement only, no method). To be noted: statement in words, no data.

Take `O=C(NC1N=C(c2ccccc2)c2ccccc2N(CCO)C1=O)c1cc2ccccc2[nH]1` (racemic) [test compound A, (3RS)-1,3-Dihydro-1-(2-hydroxyethyl)-3-(2-indolylcarbonylamino)-5-phenyl-2H-1,4-benzodiazepine-2-one]: the “Inhibition (%) of CCK-induced contractile force” value with CCK receptor amounted to 91%. With `O=C(N[C@H]1N=C(c2ccccc2)c2ccccc2N(Cc2nnn[nH]2)C1=O)c1cc2ccccc2[nH]1` [Example 42, (3S)-1,3-dihydro-3-(2-indolylcarbonylamino)-5-phenyl-1-[(1 H-tetrazol-5-yl)-methyl]-2H-1,4-benzodiazepin-2-one], the “CCK-A receptor antagonist selectivity” value in the assay with CCK-A receptor is given as “selective CCK-A receptor antagonist”.
